Data published in article PMC12703749, “H2O2–Responsive Anticancer Prodrug: Synthesis, Precision Deuteration in Search of In Vivo Metabolites, and Activation Pathway” (Journal of Medicinal Chemistry, 2025).

Assay: In vivo determination of metabolites in urine and feces (HRMS)
Design: species or system athymic nude mice
Method: To elucidate the in vivo activation mechanism of the H2O2-responsive prodrugs 10a and 10b, we investigated their metabolic fate in a xenograft mouse model. MDA-MB-468 tumor-bearing athymic nude mice received an intraperitoneal injection of a 1:1 mixture of 10a (nondeuterated, d 0) and 10b (deuterated, d 5) at equimolar doses (15 mg/kg each; total dose: 30 mg/kg). […] These end-products are consistent with a pathway initiated by H2O2-triggered oxidative deboronation of the boronic acid moiety in 10a/10b to yield phenol intermediates 11a/11b, which can undergo either hydrolysis to alcohols 12a/12b followed by N-demethylation, or direct N-demethylation to 13a/13b (Scheme ). The resulting 13a/13b serve as substrates for UDP-glucuronosyltransferase (UGT)-catalyzed conjugation with uridine diphosphate glucuronic acid, ultimately forming glucuronide conjugates 14a and 14b (Figure and Scheme ). Although intermediates 11a,b-13a,b were not detected in vivo, likely due to their rapid turnover and concentrations below the sensitivity of our LC–MS method, the proposed sequence is strongly supported by complementary cell-culture metabolism studies in which two key intermediates (11a,b and 12a,b) were observed (Figures S8 and S9). Detection of both isotopically labeled and unlabeled metabolites therefore provides robust evidence for H2O2-mediated oxidative deboronation in vivo, with the in vitro findings offering additional mechanistic confirmation.
Eight-week-old female athymic nude mice (immunodeficient) were anesthetized with isoflurane and subcutaneously inoculated in the flank with 7.5 × 10^6 MDA-MB-468 cells in 100 μL of a 1:1 mixture of Matrigel and Dulbecco’s Modified Eagle Medium (DMEM). Cells were sourced from the American Type Culture Collection (ATCC) and certified free of bloodborne pathogens. Mice were monitored daily for tumor development and weighed weekly. Upon establishment of palpable xenografts (typically one-week postinoculation), animals were randomized into treatment (n = 3) and control (n = 3) groups. For metabolite profiling, mice were individually housed in Labsand-lined cages (Labsand purchased from BrainTree Scientific, inc.). The treatment group received an IP injection of a 1:1 mixture of compounds 10a (d 0) and 10b (d 5) (100 μL) at a combined dose of […], formulated in DMSO/PBS (1×):PEG400 at a ratio of 2:19:19. The control group received the corresponding vehicle (PBS/PEG400/DMSO, 19:19:2). Food and water were provided ad libitum. Urine and Feces were collected separately at two intervals: 0–24 h and 24–48 h. All collected samples were subsequently stored in −80 °C.
Fecal samples (0.4 g) were thawed on ice from −80 °C. The feces were mixed and homogenized with a pestle in 10 mL centrifuge tube with LCMS grade MeOH (2 mL), then centrifuged for 5 min at 10,000g. The supernatant was transferred to a separate 2 mL centrifuge tube and dried. The resulting feces were subjected to SPE C-18 (Supelco Discovery DSC-18Lt SPE Tube) by initially using 5 mL 18 LCMS grade water and subsequently eluted with LCMS grade MeOH. The organic eluant was collected and dried. The resulting feces mixture was filtered by size exclusion (Amicon Ultra Centrifugal Filter, 3 kDa MWCO). Then the solution was transferred to a sample vial with 300 μL insert and analyzed by Shimadzu HRMS 9030 Q-TOF. Urine samples were thawed on ice from −80 °C, vortexed for 5 s and blended in aliquots of 20 μL MeCN. The samples were vortexed for 15 s and centrifuged for 10 min at 10,000g. The supernatant was transferred to a clean microcentrifuge tube and diluted 10× with 80:20 H2O/MeCN. The resulting solution was filtered by size exclusion (Amicon Ultra Centrifugal Filter, 3 kDa MWCO) at 11k × g.
3. In vivo determination of metabolites from Xenograft models
Table S1. In vivo metabolites of 10a and 10b and HPLC retention time (Rt).a
0 – 24 h (R t/min) 24 – 48 h (R t/min)
Phase II metabolite urine feces urine feces
glucoside <LOD <LOD <LOD <LOD […]

[1] = urine 0–24 h after IP 1:1 mixture of 10a and 10b, total dose 30 mg/kg, HRMS

Row | phase II metabolite in feces (feces 0–24 h, Table S1) | phase II metabolite in feces (feces 24–48 h, Table S1) | phase II metabolite in urine [1] | phase II metabolite in urine (urine 24–48 h, Table S1) | SMILES
1 | < LOD | < LOD | presence | < LOD | CCc1cc(N)ccc1OC1OC(C(=O)O)C(O)C(O)C1O (centres unmarked) [Compound 14a]
2 | < LOD | < LOD | presence | < LOD | [2H]C([2H])([2H])C([2H])([2H])c1cc(N)ccc1OC1OC(C(=O)O)C(O)C(O)C1O (centres unmarked) [Compound 14b]
